This is an account of results in paper PMC8397425, “A Strategy to Conjugate Bioactive Fragments to Cytotoxic Diiron Bis(cyclopentadienyl) Complexes” (Organometallics, 2021).

Series [1] has as its system guanosine 5′-monophosphate (disodium salt, Na2[GMP]). The series can be described thus: Reaction with model nucleotide GMP (mass spectrometry). To be noted: D2O/CD3OD, 1 equiv Na2[GMP], 24 h at 37 °C. The procedure:
The ability of [4]CF3SO3 and [9]CF3SO3 to interact with natural DNA was studied using the ethidium bromide (EB) exchange test (Figure 6), with the concentration of the complexes beingin the 1.5–124 μM range for [4]CF3SO3 and 1.4–135 μM for [9]CF3SO3. Blank experiments were carried out with the two bioactive molecules and also with DMSO to check for solvent/dilution effects. […] However, EB exchange titrations are suitable to recognize fast noncovalent binding events, but not subsequent slow covalent binding. Therefore, since chlorambucil is a DNA-alkylating agent, we studied the possible reaction of [9]CF3SO3 with the nucleotide guanosine 5′-monophosphate (disodium salt, Na2[GMP]; see Figure 4) as a model for DNA binding. Complex [9]CF3SO3 was incubated with a D2O/CD3OD mixture containing GMP for 24 h at 37 °C.
In order to analyze the interaction with a model nucleotide, a freshly prepared solution of [9]CF3SO3 (2 mg) in D2O/CD3OD (5/3 v/v) was treated with 1 equiv of anhydrous Na2[GMP]. The resulting mixture was maintained at 37 °C for 24 h, and then the final solution was filtered in order to remove some solid and analyzed by mass spectrometry. HPLC-MS(+): m/z found 1087.2451 [9^GMP + Na]^+, calcd for C47H53Fe2N8NaO12P 1087.2117; m/z found 555.0666 [9^GMP + 2Na]^2+, calcd for C47H53Fe2N8Na2O12P 555.1008. The isotopic patterns fit well the calculated patterns.

Series [2] has as its system Human Embryonic Kidney 293T (HEK 293T) cell line. Kind of series: MTT cytotoxicity, HEK 293T. To be noted: 72 h exposure, mean ± SD. In kind it is cell-based. The source says: (§1) Human ovarian carcinoma (A2780 and A2780cisR) cell lines were obtained from the European Collection of Cell Cultures. The Human Embryonic Kidney 293T (HEK 293T) cell line was obtained from the ATCC (Sigma, Buchs, Switzerland). Penicillin–streptomycin, RPMI 1640 GlutaMAX (where RPMI = Roswell Park Memorial Institute), and DMEM GlutaMAX media (where DMEM = Dulbecco’s modified Eagle medium) were obtained from Life Technologies, and fetal bovine serum (FBS) was obtained from Sigma. The cells were cultured in RPMI 1640 GlutaMAX (A2780 and A2780cisR) and DMEM GlutaMAX (HEK 293T) media containing 10% heat-inactivated FBS and 1% penicillin–streptomycin at 37 °C and CO2 (5%). The A2780cisR cell line was routinely treated with cisplatin (2 μM) in the media to maintain cisplatin resistance. The cytotoxicity was determined using the 3-(4,5-dimethyl-2-thiazolyl)-2,5-diphenyl-2H-tetrazolium bromide (MTT) assay.[42] Cells were seeded in flat-bottomed 96-well plates as a suspension in a prepared medium (100 μL aliquots and approximately 4300 cells/well) and preincubated for 24 h. Stock solutions of compounds were prepared in DMSO and were diluted in the medium. The solutions were sequentially diluted to give a final DMSO concentration of 0.5% and a final compound concentration range of 0–200 μM. Cisplatin was tested as a positive (0–100 μM) control. The compounds were placed in the preincubated 96-well plates in 100 μL aliquots, and the plates were incubated for a further 72 h. MTT (20 μL, 5 mg/mL in Dulbecco’s phosphate buffered saline) was placed in the cells, and the plates were incubated for a further 4 h. The culture medium was aspirated, and the purple formazan crystals, formed by the mitochondrial dehydrogenase activity of vital cells, were dissolved in DMSO (100 μL/well). The absorbance of the resulting solutions, directly proportional to the number of surviving cells, was quantified at 590 nm using a SpectroMax M5e multimode microplate reader (using SoftMax Pro software, version 6.2.2). The percentage of surviving cells was calculated from the absorbance of wells corresponding to the untreated control cells. The reported IC50 values are based on the means from two independent experiments, each comprising four tests per concentration level.

The nature of series [3]: Solubility in D2O by 1H NMR. The series is classed as physicochemical. The following applies: Me2SO2 internal standard, T = 21 °C. The procedure:
The solubility of the complexes in D2O was assessed using ^1H NMR spectroscopy (see Table 1 and the Experimental Section for details). […] Data from the literature for the related nonfunctionalized complexes [2′,3′]CF3SO3 are compiled in Table 1 for comparison.[11] The octanol–water partition coefficients (Log Pow) were measured using a UV–vis method and fall within the −0.2 to +1.2 range (Table 1). […] For instance, Log Pow values of 1.07 and 0.65 are obtained for the geometric isomers [9]CF3SO3 and [10]CF3SO3, respectively.

Series [4] deals with Human Ovarian Carcinoma (A2780) cell line. Kind of series: MTT cytotoxicity, A2780. In kind it is cell-based. To be noted: for IC50: 72 h exposure, MTT, mean ± SD.
Excerpt: as §1

The nature of series [5]: Stability in D2O/DMSO at 37 °C by 1H NMR. The series is classed as physicochemical. The following applies: 24 h at 37 °C. The procedure: Conversely, [3–7]CF3SO3, containing either {Aryl–OCOAsp} or {Aryl-NHCOAsp} moieties, were stable under the same conditions. […] Complete conversion into the bis-hydroxide [8^2OH]^+ was achieved within 72 h. Similarly, [9,10]CF3SO3 undergo activation of the {C–Cl} bonds to give mixtures of the partially Cl/OH substituted species [9^OH]^+ and [10^OH]^+ and the fully substituted species [9^2OH]^+ and [10^2OH]^+.

The next series concerns the target T1, COX-2 enzyme (Homo sapiens, UniProt P35354).
T1 construct: purchased Cayman Chemical Company
T1 sequence (P35354 18-604): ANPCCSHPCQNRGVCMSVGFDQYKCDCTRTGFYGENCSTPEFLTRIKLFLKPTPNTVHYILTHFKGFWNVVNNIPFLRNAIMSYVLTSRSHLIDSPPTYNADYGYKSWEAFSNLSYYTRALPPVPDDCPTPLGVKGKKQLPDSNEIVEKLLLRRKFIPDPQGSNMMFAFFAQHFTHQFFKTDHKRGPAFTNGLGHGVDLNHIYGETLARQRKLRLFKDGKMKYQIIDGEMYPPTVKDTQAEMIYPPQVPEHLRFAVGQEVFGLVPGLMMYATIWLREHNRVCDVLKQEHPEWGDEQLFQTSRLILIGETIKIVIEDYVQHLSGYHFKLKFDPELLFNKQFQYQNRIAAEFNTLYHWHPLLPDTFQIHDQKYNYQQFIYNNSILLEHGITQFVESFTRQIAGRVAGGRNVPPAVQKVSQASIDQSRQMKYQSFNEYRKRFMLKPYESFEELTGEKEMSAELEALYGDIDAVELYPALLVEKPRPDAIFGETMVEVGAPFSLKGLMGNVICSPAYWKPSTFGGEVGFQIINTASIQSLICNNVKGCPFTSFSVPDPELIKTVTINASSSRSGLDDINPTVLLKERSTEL
Kind of series: COX-2 enzyme inhibition assay (fluorimetric). In kind it is biochemical. The following applies: residual enzyme activity, 25 °C, pH 8, mean ± SD. The procedure: Next, the possible role of the bioactive fragment in the complexes was studied.
The IC50 value was obtained using GraphPad Prism 7 software. All of the inhibitor assays were performed at least in triplicate.

Marks after values point to notes of the source that are not given here.

As to “[Fe2Cp2(CO)(μ-CO){μ-η^1:η^3-Cγ(3-C6H4NHC(=O)(CH2)3C6H4N(CH2CH2Cl)2)CβHCαNMe2}]CF3SO3 [[9]CF3SO3]”, in series [1], the “conversion into the neutral GMP adduct 9^GMP” value was “almost complete conversion”. Further, the figures for the IC50 in series [2] and in series [4] were 9 ± 3 µM and 1.8 ± 0.3 µM, respectively. In series [3], the solubility was <1 × 10^–4 mol L^–1. Moreover, the “selectivity (SI)” value in series [4] (HEK 293T relative to A2780) is given as 5. In series [5] (D2O/DMSO 1/1 v/v), the “stability (%), total percentage of diiron complexes with a chlorambucil-like group” value is listed as 88 ^b %.

With “[Fe2Cp2(CO)(μ-CO){μ-η^1:η^3-Cγ(3-C6H4OC(=O)C6H4OC(=O)Me)CβHCαNMe(Xyl)}]CF3SO3 [[4]CF3SO3]”, the values for the IC50 (at COX-2 enzyme; in series [2]; in series [4]) were 30 ± 3 µM, 3.8 ± 0.7 µM and 2.8 ± 0.4 µM, respectively. Further, in series [3], the solubility was <1 × 10^–4 mol L^–1. Besides, in series [5] (D2O/DMSO 2/1 v/v), the “stability (%), residual percent of complex” value is listed as 59%.

As usually defined, the IC50 is the concentration that inhibits the measured activity by half. Low values mean higher potency, high ones lower potency.
